Assay [1] can be described thus: GSTO1 inhibition and proteome off-target reactivity, late-stage follow-up, selectivity assay for GSTO1 inhibitor project, cell lysate, MDA-MB-435 proteome, gel ABPP, endogenous enzyme (AID 463102). Particulars: competitive gel ABPP, SE-Rh probe, measured here: total off-target bands hit, stronger effect = lower value.
For assay [2], the target named is Glutathione S-transferase omega-1 (Homo sapiens) (UniProt P78417). The description is as above. As to conditions: competitive gel ABPP, SE-Rh probe, stronger effect = higher value.

Activity calls are given as the source filed them.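 Rule for the calls: active = target enzyme band signal cut by at least 80% with no off-target protein band also blocked; inactive = weaker inhibition or any off-target band blocked.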

Sequence of Glutathione S-transferase omega-1 (Homo sapiens) (P78417 whole entry, looked up): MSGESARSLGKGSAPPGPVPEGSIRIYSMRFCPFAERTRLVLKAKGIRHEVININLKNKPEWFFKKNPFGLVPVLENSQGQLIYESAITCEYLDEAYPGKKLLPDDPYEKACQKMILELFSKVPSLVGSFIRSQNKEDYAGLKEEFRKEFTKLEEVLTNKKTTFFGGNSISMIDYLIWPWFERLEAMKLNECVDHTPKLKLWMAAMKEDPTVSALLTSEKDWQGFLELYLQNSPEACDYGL

For the compound `COc1ccc(C(CCN(Cc2ccc(OC)c(OC)c2)C(=O)CCl)c2ccccc2)cc1` (stereo not drawn), the anti-target hits in assay [1] came out at 9. Besides, the inhibition in assay [2] (GSTO1 inhibition, at 1 µM) was 100%; in assay [2] (at 0.1 µM) it was 81% (inactive).

For `Cc1nn(-c2ccccc2)c(Cl)c1CN(C(=O)CCl)c1ccc(Cl)cc1`, the anti-target hits in assay [1] stood at 3. The inhibition in assay [2] (GSTO1 inhibition, at 1 µM) was 93%; in assay [2] (at 0.1 µM), 28% (inactive).

Consider `O=C(NCCCN(C(=O)CCl)c1ccc([N+](=O)[O-])cc1)c1ccc(F)cc1`, for which, in assay [1], the anti-target hits amounted to 2. Moreover, the inhibition was 90% in assay [2] (GSTO1 inhibition, at 1 µM) and 29% (inactive) in assay [2] (at 0.1 µM).

In turn, `COc1ccc(N(C(=O)CCl)C(C(=O)NCCc2ccccc2)c2cccs2)cc1Cl` (stereo not drawn) had an anti-target hits in assay [1] of 4. The inhibition is 100% in assay [2] (GSTO1 inhibition, at 1 µM) and 85% (inactive) in assay [2] (at 0.1 µM).

Compound `O=C(CCl)N(CCCNC(=O)C(F)(F)F)c1cccc(C(F)(F)F)c1` had an anti-target hits in assay [1] of 0. In addition, the inhibition in assay [2] (GSTO1 inhibition, at 1 µM) is 100%; in assay [2] (at 0.1 µM), 62% (inactive).

In assay [1], `Cc1cccc(CN2CCN(C(=O)CCl)CC2)c1` registered an anti-target hits of 2. In addition, the inhibition in assay [2] (GSTO1 inhibition, at 1 µM) is 89%; in assay [2] (at 0.1 µM), 26% (inactive).

Compound `O=C(NC1CCCCC1)C(c1cccnc1)N(C(=O)CCl)c1cccc(C(F)(F)F)c1` (stereo not drawn) displayed an anti-target hits in assay [1] of 2. Further, the inhibition in assay [2] (GSTO1 inhibition, at 1 µM) was 92%; in assay [2] (at 0.1 µM) it was 28% (inactive).

Regarding `COc1ccc(N(C(=O)CCl)C(C(=O)NC2CCCCC2)c2cccnc2)cc1` (stereo not drawn), in assay [1], the anti-target hits is 1. Moreover, the inhibition was 100% in assay [2] (GSTO1 inhibition, at 1 µM) and 45% (inactive) in assay [2] (at 0.1 µM).

On to `O=C(CCl)N1CCN(S(=O)(=O)c2ccc3ccccc3c2)CC1`, for which the anti-target hits in assay [1] came to 5. In addition, the inhibition in assay [2] (GSTO1 inhibition, at 1 µM) is 100%; in assay [2] (at 0.1 µM), 57% (inactive).

Consider `C#CCCC(=O)NCCCN(C(=O)CCl)c1ccc([N+](=O)[O-])cc1`, for which the anti-target hits in assay [1] stood at 0. For the same compound, the inhibition in assay [2] (GSTO1 inhibition, at 1 µM) was 100%; in assay [2] (at 0.1 µM), 59% (inactive).

As for `C#CCNC(=O)C(c1ccc(OC)cc1)N(C(=O)CCl)c1cccc(Cl)c1` (stereo not drawn), the anti-target hits in assay [1] was 1. For the same compound, the inhibition is 100% in assay [2] (GSTO1 inhibition, at 1 µM) and 69% (inactive) in assay [2] (at 0.1 µM).

Take `CC(=O)NCCCN(C(=O)CCl)c1ccc([N+](=O)[O-])cc1`: the anti-target hits in assay [1] worked out at 0. In addition, the inhibition is 62% in assay [2] (GSTO1 inhibition, at 1 µM) and 16% (inactive) in assay [2] (at 0.1 µM).

`O=C(NC1CCCCC1)C(c1cccnc1)N(C(=O)CCl)c1ccc(C(F)(F)F)cc1` (stereo not drawn) displayed an anti-target hits in assay [1] of 1. Also, the inhibition in assay [2] (GSTO1 inhibition, at 1 µM) is 55%; in assay [2] (at 0.1 µM) it was 0% (inactive).

`O=C(CCl)N(CCCCNC(=O)C(F)(F)F)c1ccc([N+](=O)[O-])cc1` registered an anti-target hits in assay [1] of 0. Also, the inhibition in assay [2] (GSTO1 inhibition, at 1 µM) is 100%; in assay [2] (at 0.1 µM), 99%.

The compound `C#CCCCCNC(=O)C(c1ccc(OC)cc1)N(C(=O)CCl)c1cccc(Cl)c1` (stereo not drawn) showed an anti-target hits in assay [1] of 1. The inhibition in assay [2] (GSTO1 inhibition, at 1 µM) was 100%; in assay [2] (at 0.1 µM), 83% (inactive).

In assay [1], `C#CCCCCN(C(=O)CCl)c1ccc([N+](=O)[O-])cc1` had an anti-target hits of 0. Further, the inhibition in assay [2] (GSTO1 inhibition, at 1 µM) was 100%; in assay [2] (at 0.1 µM), 51% (inactive).

Regarding `Cc1ccc(N(CCCNC(=O)C(F)(F)F)C(=O)CCl)cc1`, the anti-target hits in assay [1] worked out at 0. Further, the inhibition in assay [2] (GSTO1 inhibition, at 1 µM) was 55%; in assay [2] (at 0.1 µM), 10% (inactive).

As to `O=C(CCl)N(CCCNC(=O)C(F)(F)F)c1ccc(F)cc1`, in assay [1], the anti-target hits was determined as 0. Besides, the inhibition was 94% in assay [2] (GSTO1 inhibition, at 1 µM) and 25% (inactive) in assay [2] (at 0.1 µM).

In assay [1], `O=S(=O)(c1ccc(Cl)cc1)N1CCC2(CC1)CO2` yielded an anti-target hits of 0. Also, the inhibition was 88% in assay [2] (GSTO1 inhibition, at 1 µM) and 19% (inactive) in assay [2] (at 0.1 µM).

With `O=C(NC1CCCCC1)C(c1cccnc1)N(C(=O)CCl)c1ccc(F)cc1` (stereo not drawn), in assay [1], the anti-target hits is 2. In addition, the inhibition in assay [2] (GSTO1 inhibition, at 1 µM) was 100%; in assay [2] (at 0.1 µM) it was 71% (inactive).

Compound `C#CCN(CCCN(C(=O)CCl)c1ccc([N+](=O)[O-])cc1)C(=O)C(F)(F)F` displayed an anti-target hits in assay [1] of 0. For the same compound, the inhibition in assay [2] (GSTO1 inhibition, at 1 µM) is 100%; in assay [2] (at 0.1 µM), 100%.

Consider `COc1ccc(C(C(=O)NC2CCCCC2)N(C(=O)CCl)c2ccc(Cl)cc2)cc1` (stereo not drawn), for which, in assay [1], the anti-target hits amounted to 0. Besides, the inhibition in assay [2] (GSTO1 inhibition, at 1 µM) is 100%; in assay [2] (at 0.1 µM), 87%.

With `C#CCCCCNC(=O)C(c1cccnc1)N(C(=O)CCl)c1ccc(F)cc1` (stereo not drawn), the anti-target hits in assay [1] amounted to 2. In addition, the inhibition in assay [2] (GSTO1 inhibition, at 1 µM) is 100%; in assay [2] (at 0.1 µM), 48% (inactive).

As to `CCCCCCCCCCN(C(=O)CCl)c1ccc([N+](=O)[O-])cc1`, the anti-target hits in assay [1] was 6. Further, the inhibition in assay [2] (GSTO1 inhibition, at 1 µM) was 100%; in assay [2] (at 0.1 µM), 67% (inactive).

Regarding `Cc1ccc2c(c1)c1c3n2CCN(C(=O)CCl)C3CCC1` (stereo not drawn), the anti-target hits in assay [1] worked out at 6. In addition, the inhibition in assay [2] (GSTO1 inhibition, at 1 µM) was 93%; in assay [2] (at 0.1 µM) it was 38% (inactive).

The compound `O=C(NCCCN(C(=O)CCl)c1ccc([N+](=O)[O-])cc1)c1ccccc1` had an anti-target hits in assay [1] of 2. Moreover, the inhibition was 93% in assay [2] (GSTO1 inhibition, at 1 µM) and 34% (inactive) in assay [2] (at 0.1 µM).

For `C#CCNC(=O)C(c1ccc(OC)cc1)N(C(=O)CCl)c1ccc(Cl)cc1` (stereo not drawn), the anti-target hits in assay [1] was 0. For the same compound, the inhibition in assay [2] (GSTO1 inhibition, at 1 µM) is 100%; in assay [2] (at 0.1 µM), 64% (inactive).

Consider `O=C(CCl)N(CCCNC(=O)C(F)(F)F)c1ccccc1`, for which the anti-target hits in assay [1] was determined as 0. In addition, the inhibition in assay [2] (GSTO1 inhibition, at 1 µM) was 73%; in assay [2] (at 0.1 µM) it was 16% (inactive).

In turn, `COc1ccc(C(C(=O)NC2CCCCC2)N(C(=O)CCl)c2cccc(Cl)c2)cc1` (stereo not drawn) showed an anti-target hits in assay [1] of 1. Further, the inhibition in assay [2] (GSTO1 inhibition, at 1 µM) was 100%; in assay [2] (at 0.1 µM), 98% (inactive).

Compound `O=C(CCl)N(CCCNC(=O)C(F)(F)F)c1ccc(Cl)cc1` yielded an anti-target hits in assay [1] of 0. For the same compound, the inhibition is 100% in assay [2] (GSTO1 inhibition, at 1 µM) and 85% in assay [2] (at 0.1 µM).

As for `COc1ccc(N(CCCNC(=O)C(F)(F)F)C(=O)CCl)cc1`, in assay [1], the anti-target hits was determined as 0. The inhibition in assay [2] (GSTO1 inhibition, at 1 µM) is 90%; in assay [2] (at 0.1 µM) it was 27% (inactive).

For the compound `O=C(CCl)N(CCCCCNC(=O)C(F)(F)F)c1ccc([N+](=O)[O-])cc1`, in assay [1], the anti-target hits worked out at 1. In addition, the inhibition was 100% in assay [2] (GSTO1 inhibition, at 1 µM) and 90% (inactive) in assay [2] (at 0.1 µM).

`O=c1[nH]c(CCl)nc2cc(-c3ccc(F)cc3)sc12` came in with an anti-target hits in assay [1] of 4. The inhibition is 100% in assay [2] (GSTO1 inhibition, at 1 µM) and 77% (inactive) in assay [2] (at 0.1 µM).

The compound `O=C(NC1CCCCC1)C(c1cccnc1)N(C(=O)CCl)c1ccc(Cl)c(Cl)c1` (stereo not drawn) yielded an anti-target hits in assay [1] of 2. Moreover, the inhibition in assay [2] (GSTO1 inhibition, at 1 µM) was 100%; in assay [2] (at 0.1 µM), 93% (inactive).

The compound `O=C(NC1CCCCC1)C(c1cccnc1)N(C(=O)CCl)c1cccc(Cl)c1` (stereo not drawn) gave an anti-target hits in assay [1] of 2. For the same compound, the inhibition in assay [2] (GSTO1 inhibition, at 1 µM) is 100%; in assay [2] (at 0.1 µM) it was 100% (inactive).

`O=C(NC1CCCCC1)C(c1cccnc1)N(C(=O)CCl)c1ccc(Cl)cc1` (stereo not drawn) yielded an anti-target hits in assay [1] of 2. In addition, the inhibition in assay [2] (GSTO1 inhibition, at 1 µM) is 100%; in assay [2] (at 0.1 µM), 79% (inactive).

The record behind these values is PubChem BioAssay AID463102 (The Scripps Research Institute Molecular Screening Center, 2010).
